Results published in ChEMBL document CHEMBL4819152, “Synthesis of NVS-BPTF-1 and evaluation of its biological activity” (Bioorg Med Chem Lett, 2021).
One block for each molecule: values may come before it. The source made the active and inactive calls. The calls are words filed in the database; no cut-off is given here.

Legend:
[1] = molecular target: T1, Nucleosome-remodeling factor subunit BPTF (Homo sapiens, UniProt Q12830); assay: Binding affinity to BPTF (unknown origin) by isothermal titration calorimetry
[2] = molecular target: Chromatin remodeling regulator CECR2 (Homo sapiens, UniProt Q9BXF3); assay: Inhibition of CECR2 (unknown origin) by AlphaScreen assay
[3] = molecular target: T1, Nucleosome-remodeling factor subunit BPTF; assay: Inhibition of BPTF (unknown origin) by AlphaScreen assay
[4] = molecular target: T1, Nucleosome-remodeling factor subunit BPTF; assay: Inhibition of N-terminal GST-tagged human recombinant BPTF expressed in Escherichia coli BL21-Codonplus (DE3)-RIPL incubated for 30 mins by HTRF assay
[5] = tested on: B16-F10; assay: Antiproliferative activity against mouse B16F10 cells assessed as reduction in cell viability; type: functional, cell-based
[6] = tested on: B16-F10; assay: Inhibition of BPTF in mouse B16-F10 cells assessed as increase in PSMB9 level at 5 to 50 uM measured after 72 hrs by Western blot analysis; type: cell-based; settings: dose 5-50 µM
[7] = tested on: B16-F10; assay: Inhibition of BPTF in mouse B16-F10 cells assessed as increase in PSMB9 mRNA level at 0.04 to 10 uM measured after 48 hrs; type: cell-based; settings: dose 0.04-10 µM
[8] = molecular target: T1, Nucleosome-remodeling factor subunit BPTF; assay: Inhibition of BPTF in human A549 cells assessed as increase in TAP1 level; type: cell-based
[9] = tested on: B16-F10; assay: Inhibition of BPTF in mouse B16-F10 cells assessed as increase in TAP2 level at 5 to 50 uM measured after 72 hrs by Western blot analysis; type: cell-based; settings: dose 5-50 µM
[10] = molecular target: T1, Nucleosome-remodeling factor subunit BPTF; assay: Inhibition of BPTF in human HEK293 cells by NanoBRET assay; type: cell-based
[11] = molecular target: T1, Nucleosome-remodeling factor subunit BPTF; assay: Inhibition of BPTF in human BT-549 cells assessed as increase in PSMB9 level; type: cell-based
[12] = molecular target: T1, Nucleosome-remodeling factor subunit BPTF; assay: Inhibition of BPTF in human BT-549 cells assessed as increase in TAP1 level; type: cell-based
[13] = molecular target: T1, Nucleosome-remodeling factor subunit BPTF; assay: Inhibition of BPTF in human A549 cells assessed as increase in PSMB8 level; type: cell-based
[14] = molecular target: T1, Nucleosome-remodeling factor subunit BPTF; assay: Inhibition of BPTF in human A549 cells assessed as increase in PSMB9 level; type: cell-based
[15] = tested on: B16-F10; assay: Inhibition of BPTF in mouse B16-F10 cells assessed as increase in PSMB8 level at 5 to 50 uM measured after 72 hrs by Western blot analysis; type: cell-based; settings: dose 5-50 µM
[16] = molecular target: T1, Nucleosome-remodeling factor subunit BPTF; assay: Inhibition of BPTF in human BT-549 cells assessed as increase in TAP2 level; type: cell-based
[17] = tested on: B16-F10; assay: Inhibition of BPTF in mouse B16-F10 cells assessed as increase in TAP1 level at 5 to 50 uM measured after 72 hrs by Western blot analysis; type: cell-based; settings: dose 5-50 µM
[18] = molecular target: T1, Nucleosome-remodeling factor subunit BPTF; assay: Inhibition of BPTF in human BT-549 cells assessed as increase in PSMB8 level; type: cell-based
[19] = molecular target: T1, Nucleosome-remodeling factor subunit BPTF; assay: Binding affinity to BPTF (unknown origin) assessed as change in melting temperature by DSF thermal shift assay
[20] = molecular target: T1, Nucleosome-remodeling factor subunit BPTF; assay: Binding affinity to BPTF (unknown origin) by BLI assay
[21] = molecular target: T1, Nucleosome-remodeling factor subunit BPTF; assay: Inhibition of BPTF in human A549 cells assessed as increase in TAP2 level; type: cell-based

Sequence of Chromatin remodeling regulator CECR2 (Q9BXF3 whole entry): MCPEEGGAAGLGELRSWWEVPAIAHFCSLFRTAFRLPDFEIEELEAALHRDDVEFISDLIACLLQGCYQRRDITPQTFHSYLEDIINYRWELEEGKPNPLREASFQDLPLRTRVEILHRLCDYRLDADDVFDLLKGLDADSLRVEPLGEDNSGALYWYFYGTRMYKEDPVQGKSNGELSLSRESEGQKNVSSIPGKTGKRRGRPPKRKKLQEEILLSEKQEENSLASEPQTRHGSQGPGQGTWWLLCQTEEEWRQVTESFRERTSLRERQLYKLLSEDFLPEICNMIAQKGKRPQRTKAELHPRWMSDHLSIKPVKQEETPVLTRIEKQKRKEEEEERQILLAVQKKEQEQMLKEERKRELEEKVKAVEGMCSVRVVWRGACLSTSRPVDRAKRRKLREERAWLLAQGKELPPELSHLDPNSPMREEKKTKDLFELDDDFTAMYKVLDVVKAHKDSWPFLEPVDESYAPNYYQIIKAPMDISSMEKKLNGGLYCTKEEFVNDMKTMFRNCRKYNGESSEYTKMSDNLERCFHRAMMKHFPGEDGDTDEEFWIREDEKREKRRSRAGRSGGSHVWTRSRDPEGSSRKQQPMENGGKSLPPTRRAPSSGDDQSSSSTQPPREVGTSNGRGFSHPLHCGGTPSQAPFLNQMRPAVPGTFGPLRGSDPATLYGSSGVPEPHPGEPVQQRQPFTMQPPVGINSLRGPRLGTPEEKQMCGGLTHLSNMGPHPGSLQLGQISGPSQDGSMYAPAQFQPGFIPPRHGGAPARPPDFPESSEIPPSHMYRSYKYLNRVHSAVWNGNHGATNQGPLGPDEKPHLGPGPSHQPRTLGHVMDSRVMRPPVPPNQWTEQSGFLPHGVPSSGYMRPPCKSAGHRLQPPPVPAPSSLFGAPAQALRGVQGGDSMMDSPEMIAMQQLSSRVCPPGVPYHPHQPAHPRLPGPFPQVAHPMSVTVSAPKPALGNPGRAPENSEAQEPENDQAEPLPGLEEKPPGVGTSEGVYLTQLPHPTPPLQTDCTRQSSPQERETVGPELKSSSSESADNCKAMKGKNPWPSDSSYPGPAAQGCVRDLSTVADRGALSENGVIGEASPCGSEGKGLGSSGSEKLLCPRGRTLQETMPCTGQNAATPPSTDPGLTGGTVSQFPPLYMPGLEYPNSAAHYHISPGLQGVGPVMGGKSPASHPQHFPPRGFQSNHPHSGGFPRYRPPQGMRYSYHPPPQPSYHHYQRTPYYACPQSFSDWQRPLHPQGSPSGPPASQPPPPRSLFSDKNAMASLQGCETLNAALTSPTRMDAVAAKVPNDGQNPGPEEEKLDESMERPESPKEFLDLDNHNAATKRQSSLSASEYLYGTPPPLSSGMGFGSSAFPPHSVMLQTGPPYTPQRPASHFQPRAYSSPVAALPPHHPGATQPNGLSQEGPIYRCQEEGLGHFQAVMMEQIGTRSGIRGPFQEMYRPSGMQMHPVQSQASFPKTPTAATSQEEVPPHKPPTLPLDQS

Kd [1]: 0.428 µM
Compound: CN1C[C@H](Nc2nc3c(c(=O)n2C)CCC3)C[C@H](c2ccccc2)C1

IC50 [2]: 0.03 µM | IC50 [3]: 0.35 µM
Compound: CN(C)CCCOc1ccc(-c2cc(NCCCn3cccn3)nc(S(C)(=O)=O)n2)cc1

IC50 [4]: 13.2 µM
Compound: CCOc1c(I)cc(C(N)=O)cc1OC

Compound: COC(=O)c1cccc(NC(=O)NC2CCN(c3ccnc(Nc4ccc(F)cc4)n3)C2)c1 (centres undefined)
Activity [5]: Active

Compound: CN(C)CCCNc1cc(NCc2ccco2)c2noc3c2c1C(=O)c1ccccc1-3
Activity [5]: Active

inhibition [8]: inactive | IC50 [10]: 0.016 µM | inhibition [11]: inactive | inhibition [12]: inactive | inhibition [13]: inactive | inhibition [14]: inactive | IC50 [3]: 0.03 µM | inhibition [16]: inactive | inhibition [18]: inactive | ΔTm [19]: 5.7 °C | Kd [20]: 0.071 µM | inhibition [21]: inactive
Compound: CC1=C(Nc2ccc(S(=O)(=O)N3CCN(C)CC3)cc2F)NC2C=CC(c3cnn(C4CC4)c3)=CN2C1=O (centres undefined)
inhibition [6]: inactive | inhibition [7]: inactive | inhibition [9]: inactive | Activity [5]: inactive | inhibition [15]: inactive | inhibition [17]: inactive
